Experimental data reported in patent publication US20240050526A1, “CATH2 DERIVATIVES FOR STIMULATING INNATE IMMUNE MEMORY” (priority 2020, published 2024).
Square brackets hold non-standard residues; d marks the D form. Ends that are not written are not given here.

Experiments:
Salmonella enterica = settings: injected into the yolk of zebrafish embryos, intravenous infection; cited from earlier work
[1] = test system: Candida albicans ATCC10231; test: Candidacidal activity of DCATH-2 primed dTHP-1 cells; format: cell-based; settings: 24 h DCATH-2 training; colonies after 48 h
Description: dTHP-1 cells were seeded in 6 well plates and primed with DCATH-2 or medium as described. Candida albicans ATCC10231 was grown in yeast malt broth (Oxoid) at 30° C., diluted in DPBS to 1×10^4 CFU/ml and added to each well (MOI of 0.03). After 5 h incubation at 30° C., supernatants were transferred and kept. The remaining cells were supplemented with 0.5 ml of sterile water, mixed vigorously and combined with their corresponding well supernatants. Serial dilutions prepared in yeast malt broth were plated onto yeast malt agar. Colonies were counted after 48 h at 30° C.

dTHP-1 cells [2] = test: RNA sequencing of DCATH-2 trained dTHP-1 cells; format: cell-based, human
Description: dTHP-1 cells (1×10^6/well) were primed for 24 h with DCATH-2 in 6 well plates containing 1 ml medium, using culture medium as control. After priming, cells were washed 3 times and left to rest for 3 days in culture medium. Cells were stimulated for 6 h with 50 ng/ml E. coli O111:B4 LPS or fresh medium. Supernatants were stored for cytokine analysis. Cells were harvested by rinsing once with ice-cold DPBS and lysing cells in 100 μl RLT buffer (Qiagen) containing 1% 2-mercaptoethanol. After scraping, per condition the contents of two wells were transferred into vials, flash frozen in liquid nitrogen and stored at −80° C. for analysis. Total RNA was extracted in RLT buffer (RNeasy kit, Qiagen) supplemented with 2-mercaptoethanol and purified using a Qiagen QiaSymphony SP system. RNA libraries were prepared using the Truseq stranded total RNA (ribo-zero) library prep kit (Illumina) according the manufacturer's recommendations. RNA-sequencing was done with a NextSeq 500 system 1×75 bp high-output kit. Single-end RNASeq reads were processed using the UMCU RNASeq pipeline (v2.3.0) with default settings. Read quality was assessed with FastQC (0.11.4) followed by splice-aware alignment against the human reference genome (GRCh37) with STAR (2.4.2a). RNA expression quantification was performed with htseq-count (0.6.0) in reverse-stranded mode. Differential gene expression analysis was carried out with the DESeq2 package in DEBrowser (https://debrowser.umassmed.edu/). In each comparsion, genes were selected with an absolute fold-change >1.5 and alpha P<0.05. Pathway enrichment analysis was performed in g:Profiler (https://biit.cs.ut.ee/gprofiler/) using separate FDR ranked differentially expressed gene lists for up and down regulated genes with a Benjamini-Hochberg FDR correction for multiple testing and a FDR<0.05 threshold. Enriched pathways of GO Biologic Processes were visualized in Cytoscape (http://www.cytoscape.org/) using EnrichmentMap (http://www.baderlab.org/Software/EnrichmentMap) and a FDR cutoff of 0.01. Similarity statistic threshold was set at Jaccard>0.25 and filtered for gene set sizes between 5 and 500 genes.

dTHP-1 cells [3] = test: Metabolomics of DCATH-2 trained dTHP-1 cells; format: cell-based, human
Description: dTHP-1 cells were seeded (1×10^6 cells/well) in 6 wells plates and primed during 24 h with 5 μM DCATH-2 as described using medium as control. Cell supernatants, cell lysates and medium controls were collected before and after 24 h priming in the absence and presence of 10 nM rapamycin, after washing followed by 3 days rest and after subsequent 24 h LPS (E. coli O111:B4) stimulation. For sample collections, cells were washed once in ice-cold PBS, lysed with by adding 1 ml cold methanol/acetonitrile/water (2:2:1) lysis buffer, scraped and transferred in to vials. Cell supernatants and medium control samples (10 μl) were directly mixed with 200 μl lysis buffer. Samples were shaken for 10 min at 4° C. and centrifuged for 15 min at 18,000×g and 4° C. Supernatants were flash frozen in liquid nitrogen and stored at −80° C. for analysis. Liquid chromatography-mass spectrometry analysis was performed using an Exactive mass spectrometer (Thermo Scientific), coupled to a Dionex Ultimate 3000 auto sampler and pump (Thermo Scientific). The mass spectrometry operated in polarity-switching mode with spray voltages of 4.5 and −3.5 kV. Metabolites were separated using a Sequant ZIC-pHILIC column (2.1×150 mm, […], guard column 2.1×20 mm, […]; Merck) using a linear gradient of acetonitrile and eluent A 20 mM (NH4)2CO3, 0.1% NH40H in ULC/MS grade water (Biosolve BV, Valkenswaard, The Netherlands) and a flow rate of 150 μl/min. Metabolites were identified and peak intensities quantified using LCquan software (Thermo Scientific) on the basis of exact mass within 5 ppm and further validated by concordance with retention times of commercially available standards. Peak intensities were normalized on cell counts of parallel wells before and after LPS stimulation.

[4] = DCATH-2 training, during LPS stimulation
[5] = RNAseq experiment, 24 h priming, 3 days rest, 6 h E. coli LPS stimulation
[6] = trained LPS-stimulated cells vs LPS-stimulated control cells
[7] = trained and rested cells vs unstimulated control cells
[8] = 5 μM, 24 h priming, 3 days rest
[9] = after 24 h E. coli LPS stimulation

rfgrflrkirrfrpkvtitiqgsarf-NH2 ([dR][dF]G[dR][dF][dL][dR][dK][dI][dR][dR][dF][dR][dP][dK][dV][dT][dI][dT][dI][dQ]G[dS][dA][dR][dF]-NH2; N-terminus assumed; SMILES CC[C@@H](C)[C@@H](NC(=O)[C@@H](CCCCN)NC(=O)[C@@H](CCCNC(=N)N)NC(=O)[C@@H](CC(C)C)NC(=O)[C@@H](Cc1ccccc1)NC(=O)[C@@H](CCCNC(=N)N)NC(=O)CNC(=O)[C@@H](Cc1ccccc1)NC(=O)[C@H](N)CCCNC(=N)N)C(=O)N[C@H](CCCNC(=N)N)C(=O)N[C@H](CCCNC(=N)N)C(=O)N[C@H](Cc1ccccc1)C(=O)N[C@H](CCCNC(=N)N)C(=O)N1CCC[C@@H]1C(=O)N[C@H](CCCCN)C(=O)N[C@@H](C(=O)N[C@@H](C(=O)N[C@@H](C(=O)N[C@@H](C(=O)N[C@@H](C(=O)N[C@H](CCC(N)=O)C(=O)NCC(=O)N[C@H](CO)C(=O)N[C@H](C)C(=O)N[C@H](CCCNC(=N)N)C(=O)N[C@H](Cc1ccccc1)C(N)=O)[C@H](C)CC)[C@H](C)O)[C@H](C)CC)[C@H](C)O)C(C)C) [DCATH-2, full D-amino acid analog of CATH-2]
mortality after lethal dose of Salmonella enterica (Salmonella enterica): delayed mortality | inhibition of outgrowth of Candida albicans vs non-primed dTHP-1 cells [1]: 68±10% | Log 2 fold change, gene AHNAK2 (dTHP-1 cells [2]; [4]): 1.12 | Log 2 fold change, gene CCL18 (dTHP-1 cells [2]; [4]): 2.81 | Log 2 fold change, gene CCRL2 (dTHP-1 cells [2]; [4]): 1.04 | Log 2 fold change, gene CD22 (dTHP-1 cells [2]; [4]): 1.18 | Log 2 fold change, gene CSF2 (dTHP-1 cells [2]; [4]): 1.81 | Log 2 fold change, gene CXCL3 (dTHP-1 cells [2]; [4]): 1.18 | Log 2 fold change, gene FAM213B (dTHP-1 cells [2]; [4]): 1.02 | Log 2 fold change, gene FOXF1 (dTHP-1 cells [2]; [4]): 1.21 | Log 2 fold change, gene HSPBAP1 (dTHP-1 cells [2]; [4]): 1.06 | Log 2 fold change, gene IL1A (dTHP-1 cells [2]; [4]): 1.15 | Log 2 fold change, gene IL6 (dTHP-1 cells [2]; [4]): 2.17 | Log 2 fold change, gene KLF2 (dTHP-1 cells [2]; [4]): 2.54 | Log 2 fold change, gene LIF (dTHP-1 cells [2]; [4]): 2.73 | Log 2 fold change, gene MFSD2A (dTHP-1 cells [2]; [4]): 1.04 | Log 2 fold change, gene MYLK (dTHP-1 cells [2]; [4]): 1.17 | Log 2 fold change, gene PTGS2 (dTHP-1 cells [2]; [4]): 1.29 | Log 2 fold change, gene SEPT3 (dTHP-1 cells [2]; [4]): 1.06 | Log 2 fold change, gene TIE1 (dTHP-1 cells [2]; [4]): 1.46 | Log 2 fold change, gene TNFSF15 (dTHP-1 cells [2]; [4]): 1.19 | Log 2 fold change, gene TRIM47 (dTHP-1 cells [2]; [4]): 2.45 | Log 2 fold change, gene TRPM8 (dTHP-1 cells [2]; [4]): 1.36 | Log 2 fold change, gene ZNF358 (dTHP-1 cells [2]; [4]): 1.04 | amplification of IL-6 production (dTHP-1 cells [2]; [5]): 3.3 fold | amplification of TNFα production (dTHP-1 cells [2]; [5]): 2.5 fold | downregulated DEGs (dTHP-1 cells [2]; [6]): 54 | upregulated DEGs (dTHP-1 cells [2]; [6]): 71 | downregulated DEGs (dTHP-1 cells [2]; [7]): 126 | upregulated DEGs (dTHP-1 cells [2]; [7]): 156 | TCA cycle and urea cycle (dTHP-1 cells [3]; [8]): not significantly affected | de novo pyrimidine synthesis (dTHP-1 cells [3]; [8]): increased | glycolysis (metabolic intermediates) (dTHP-1 cells [3]; [8]): increased | intracellular glucose concentrations (dTHP-1 cells [3]; [8]): lower | intracellular lactate levels (dTHP-1 cells [3]; [8]): higher | lactate secretion into the medium (dTHP-1 cells [3]; [8]): augmented | levels of intracellular medium-chain and long-chain acylcarnitines (dTHP-1 cells [3]; [8]): dramatically increased | usage of amino acids (dTHP-1 cells [3]; [8]): overall enhanced usage | TCA cycle, urea cycle or amino acid metabolism (dTHP-1 cells [3]; LPS stimulation of trained cells): did not affect | intracellular levels of medium-chain and long-chain acylcarnitines (dTHP-1 cells [3]; [9]): remained elevated | training induced metabolic shift during LPS stimulation (dTHP-1 cells [3]; [9]): maintained
